Measurements from patent US20070258912A1, “Use of Fluorescent Whitening Agents as Antimicrobials” (priority 2004, published 2007).
Read-outs that look alike come from different tables or passages of the source.

Experiments:
Format in all cases: cell-based
Actinomyces viscosus [1] = test: MIC against oral microorganisms via broth dilution
Method: (§1) Determination of the Minimum Inhibition Concentration (MIC Value) Against Different Oral Microorganisms Via Broth Dilution
(§2) 1500 ppm stock solutions of the substances are prepared in ethanol and pipetted into the growth medium to yield concentrations between 0.94 and 15 ppm. Bacteria are taken from blood agar plates with cotton swabs and adjusted in the appropriate growth medium to yield an optical density corresponding to McFarland 0.5. This suspension is directly used in the case of F. nucleatum and P. nigrescens. For the other strains, the suspension is diluted 1:20. 0.1 ml of these bacterial suspensions are added to 2 ml of the substance solutions. After the incubation time, the tubes are assessed for growth (turbidity).
(§3) Test Organisms: *Actinobacillus actinomycetemcomitans ATCC 43718 *Stretococcus gordonii ATCC 10558 *Streptococcus mutans ATCC 33402 Actinomyces viscosus ATCC 43146 Fusobacterium nucleatum subsp. polymorphum ATCC 10953 Porphyromonas gingivalis ATCC 33277
(§4) Prevotella nigrescens ATCC 33563

[2] = tested on: Fusobacterium nucleatum subsp. polymorphum; test: MIC against oral microorganisms via broth dilution; details: ATCC10953, broth dilution 0.94-15 ppm, 7-10 days at 37° C. anaerobically, ATCC 10953, read-out: MIC Fusobacterium nucleatum subsp. polymorphum
Method: as §1, §2, §3, §4

Prevotella nigrescens = test: MIC against oral microorganisms via broth dilution
Method: as §1, §2, §3, §4

Porphyromnas gingivalis = test: MIC against oral microorganisms via broth dilution; details: read-out: MIC Porphyromnas gingivalis
Method: as §1, §2, §3, §4

Streptococcus gordonii = test: MIC against oral microorganisms via broth dilution
Method: as §1, §2, §3, §4

[3] = tested on: Actinobacillus actinomycetemcomitans; test: MIC against oral microorganisms via broth dilution; details: Aggregatibacter actinomycetemcomitans, ATCC43718; broth dilution 0.94-15 ppm, 24 h aerobically with 10% CO2, ATCC 43718
Method: as §1, §2, §3, §4

Streptococcus mutans = test: MIC against oral microorganisms via broth dilution
Method: as §1, §2, §3, §4

[4] = tested on: Corynebacterium minutissimum; test: MIC in the agar incorporation test; details: read-out: MIC Corynebacterium minutissimum
Staphylococcus aureus [5] = test: Microbicidal activity (suspension test, plate count); details: 120 ppm, ATCC 6538; for Microbicidal activity Staphylococcus aureus 120 ppm/5 min: 5 min contact at 22° C.; for Microbicidal activity Staphylococcus aureus 120 ppm/30 min: 30 min contact at 22° C.
Method: (§5) Determination of Microbicidal Activity
(§6) 1 g stock solution with an appropriate concentration of test products are mixed with 8 g water and then inoculated with 1 ml of the selected test organisms. After a given contact period, aliquots are taken, inactivated and diluted. The number of surviving bacteria per ml incubation assay is determined by plate count. Proper inactivation by the inactivating medium used was checked each time.
(§7) Diluent: tryptone water for microorganisms
(§8) • (0.1% tryptone (Oxoid), 0.85% NaCl, deion. water) • deion. water for test substances • inactivating medium for detection of surviving microorganisms Growth medium: casein soybean peptone agar Inactivating Medium: tryptic soy broth special • (10% w/w Tween 80, 3% w/w Lecithine, 0.1% w/w L-Histidine, • 0.055% w/w Sodium thiosulfate) Test organisms: Staphylococcus aureus ATCC 6538 • Escherichia coli ATCC 10536 • Actinomyces viscosus ATCC 43146 • Corynebacterium xerosis ATCC 373 Test concentration: 120 ppm and 1200 ppm Contact times: 5 and 30 minutes at 22° C.
(§9) Incubation time: 24 h at 37° C.

Actinomyces viscosus [6] = test: as above; details: 120 ppm, ATCC 43146; for Microbicidal activity Actinomyces viscosus 120 ppm/5 min: 5 min contact at 22° C.; for Microbicidal activity Actinomyces viscosus 120 ppm/30 min: 30 min contact at 22° C.
Method: as §5, §6, §7, §8, §9

Corynebacterium xerosis [7] = test: as above; details: 120 ppm, ATCC 373; for Microbicidal activity Corynebacterium xerosis 120 ppm/5 min: 5 min contact at 22° C.; for Microbicidal activity Corynebacterium xerosis 120 ppm/30 min: 30 min contact at 22° C.
Method: as §5, §6, §7, §8, §9

Escherichia coli [8] = test: as above; details: 120 ppm, ATCC 10536; for Microbicidal activity Escherichia coli 120 ppm/5 min: 5 min contact at 22° C.; for Microbicidal activity Escherichia coli 120 ppm/30 min: 30 min contact at 22° C.
Method: as §5, §6, §7, §8, §9

Staphylococcus aureus [9] = test: MIC in the agar incorporation test
Method: (§10) Determination of Minimum Inhibitory Concentration (MIC Values) in the Agar Incorporation Test
(§11) 1% stock solutions of the substances are prepared in an appropriate solvent and diluted in serial dilutions 1:2 (to yield end concentrations in the agar of 500-1.9 ppm). 0.3 ml of each dilution step is mixed with 15 ml of nutrient medium while the latter is still liquid. After the nutrient medium has solidified, 10 μl of each test strain in 0.85% NaCl solution are spotted onto the agar medium.
(§12) The plates are incubated at 37° C. for 24 hours and then the highest dilution (lowest concentration) of the test substance at which growth is no longer observable is determined.
(§13) Test Organisms: Staphylococcus aureus ATCC 6583 Staphylococcus epidermidis ATCC 12228 Corynebacterium xerosis ATCC 373 Propionibacterium acnes ATCC Escherichia coli ATCC 10536 Salmonella choleraesuis ATCC Klebsiella pneumoniae ATCC *Candida albicans ATCC 10231
(§14) *Aspergillus niger ATCC 6275

Corynebacterium xerosis [10] = test: MIC in the agar incorporation test
Method: as §10, §11, §12, §13, §14

Klebsiella pneumoniae = test: MIC in the agar incorporation test; details: Mueller Hinton agar, 24 hours at 37° C.
Method: as §10, §11, §12, §13, §14

Staphylococcus epidermis = test: MIC in the agar incorporation test
Method: as §10, §11, §12, §13, §14

Propionibacterium acnes = test: MIC in the agar incorporation test; details: Cutibacterium acnes, read-out: MIC Propionibacterium acnes
Method: as §10, §11, §12, §13, §14

Escherichia coli [11] = test: MIC in the agar incorporation test; details: ATCC10536, agar incorporation, Mueller Hinton agar, 24 hours at 37° C., ATCC 10536, read-out: MIC Escherichia coli
Method: as §10, §11, §12, §13, §14

Salmonella choleraesuis = test: MIC in the agar incorporation test; details: Salmonella enterica, Mueller Hinton agar, 24 hours at 37° C.
Method: as §10, §11, §12, §13, §14

[12] = tested on: Actinomyces viscosus ATCC 43146; test: Substantivity on hydroxyapatite and growth inhibition; details: 500 ppm ethanolic solution; discs pretreated with artificial saliva; 6 and 24 hours at 37° C.; vs untreated control
Method: Hydroxyapatite discs are incubated in artificial saliva (German Dental Magazine DZZ 5/2002) for 4 hrs under stirring, rinsed in NaCl, dried over night, and then incubated in ethanolic solutions of the test substances. Then all treated discs are put in 12 well Nucleon surface titre plates (one disc per well), and Caso Broth inoculated with the test strain. The titre plates are incubated at 37° C., samples are taken after 6 and 24 hrs and the colony count is determined by plate count.

[13] = ATCC43146, broth dilution 0.94-15 ppm, 7-10 days at 37° C. anaerobically, ATCC 43146, read-out: MIC Actinomyces viscosus
[14] = ATCC33563, broth dilution 0.94-15 ppm, Columbia bouillon, 7-10 days at 37° C. anaerobically, ATCC 33563, read-out: MIC Prevotella nigrescens
[15] = broth dilution 0.94-15 ppm, Columbia bouillon, 7-10 days at 37° C. anaerobically, ATCC 33277
[16] = ATCC10558, broth dilution 0.94-15 ppm, 24 h aerobically with 10% CO2, ATCC 10558, read-out: MIC Streptococcus gordonii
[17] = ATCC33402, broth dilution 0.94-15 ppm, 24 h aerobically with 10% CO2, ATCC 33402, read-out: MIC Streptococcus mutans
[18] = agar incorporation, Mueller Hinton agar, 24 hours at 37° C.
[19] = ATCC6583, agar incorporation, Mueller Hinton agar, 24 hours at 37° C., ATCC 6583, read-out: MIC Staphylococcus aureus
[20] = ATCC373, agar incorporation, Mueller Hinton agar, 24 hours at 37° C., ATCC 373, read-out: MIC Corynebacterium xerosis
[21] = ATCC12228, agar incorporation, Mueller Hinton agar, 24 hours at 37° C., ATCC 12228, read-out: MIC Staphylococcus epidermis

| Compound | MIC (Actinomyces viscosus [1]; [13]) [µg/mL] | MIC [2] [µg/mL] | MIC (Prevotella nigrescens; [14]) [µg/mL] | MIC (Porphyromnas gingivalis; [15]) [µg/mL] | MIC (Streptococcus gordonii; [16]) [µg/mL] | MIC [3] [µg/mL] | MIC (Streptococcus mutans; [17]) [µg/mL] | MIC [4, 18] [µg/mL] | Microbicidal activity Staphylococcus aureus 120 ppm/5 min (Staphylococcus aureus [5]) [log reduction] | Microbicidal activity Staphylococcus aureus 120 ppm/30 min (Staphylococcus aureus [5]) [log reduction] | Microbicidal activity Actinomyces viscosus 120 ppm/5 min (Actinomyces viscosus [6]) [log reductions] | Microbicidal activity Actinomyces viscosus 120 ppm/30 min (Actinomyces viscosus [6]) [log reductions] | Microbicidal activity Corynebacterium xerosis 120 ppm/5 min (Corynebacterium xerosis [7]) [log reductions] | Microbicidal activity Corynebacterium xerosis 120 ppm/30 min (Corynebacterium xerosis [7]) [log reductions] | Microbicidal activity Escherichia coli 120 ppm/5 min (Escherichia coli [8]) [log reduction] | MIC (Staphylococcus aureus [9]; [19]) [µg/mL] | MIC (Corynebacterium xerosis [10]; [20]) [µg/mL] | MIC (Klebsiella pneumoniae) [µg/mL] | MIC (Staphylococcus epidermis; [21]) [µg/mL] | MIC (Propionibacterium acnes; [18]) [µg/mL] | other results |
| --- | --- | --- | --- | --- | --- | --- | --- | --- | --- | --- | --- | --- | --- | --- | --- | --- | --- | --- | --- | --- | --- |
| CN(C)CCCOc1ccccc1/C=C/c1ccc(/C=C/c2ccccc2OCCCN(C)C)cc1 [formula 26] | 3.8 | 3.8 | 1.9 | 3.8 | 7.5 | 15 | 3.8 | 6.3 | 0 | 4 | 0 | 3.7 | 2.9 | 5 | 4.5 | 6.3 | 3.1 | 25 | 6.3 | 12.5 | Microbicidal activity Escherichia coli 120 ppm/30 min (Escherichia coli [8]): 5 log reduction; MIC (Escherichia coli [11]): 200 µg/mL; MIC (Salmonella choleraesuis): 200 µg/mL |
| CC[N+](C)(C)CCCOc1ccccc1/C=C/c1ccc(-c2ccc(/C=C/c3ccccc3OCCC[N+](C)(C)CC)cc2)cc1 [formula 33] | – | – | – | – | – | – | – | – | – | – | – | – | – | – | – | – | – | – | – | – | MIC (Actinomyces viscosus [1]; ATCC43146, read-out: MIC Actinomyces viscosus): 3.8 µg/mL; MIC (Prevotella nigrescens; ATCC33563, read-out: MIC Prevotella nigrescens): 3.75 µg/mL; MIC (Porphyromnas gingivalis): 15 µg/mL; MIC (Streptococcus gordonii; ATCC10558, 24 h, read-out: MIC Streptococcus gordonii): 3.75 µg/mL; MIC (Streptococcus mutans; ATCC33402, 24 h, read-out: MIC Streptococcus mutans): 1.88 µg/mL; MIC ([4]; 24 h): 7.8 µg/mL; Growth inhibition of Actinomyces viscosus after adsorption on hydroxyapatite discs [12]: growth inhibition; MIC (Staphylococcus aureus [9]; ATCC6583, 24 h, read-out: MIC Staphylococcus aureus): 3.9 µg/mL; MIC (Corynebacterium xerosis [10]; ATCC373, 24 h, read-out: MIC Corynebacterium xerosis): 31.3 µg/mL; MIC (Staphylococcus epidermis; ATCC12228, 24 h, read-out: MIC Staphylococcus epidermis): 3.9 µg/mL; MIC (Propionibacterium acnes; 24 h): 3.9 µg/mL |
| Cc1ccc(/C=C/c2ccc(/C=C/c3cccc(OCCCN(C)C)c3)cc2)c(OCCN(C)C)c1 [formula 29] | 3.8 | 3.8 | 1.9 | 1.9 | 7.5 | 7.5 | 3.8 | 6.3 | 3 | 5 | 2.5 | 5 | 5 | 5 | 5 | 3.1 | 3.1 | 25 | 3.1 | 3.1 | Microbicidal activity Escherichia coli 120 ppm/30 min (Escherichia coli [8]): 5 log reduction; MIC (Escherichia coli [11]): 200 µg/mL; MIC (Salmonella choleraesuis): 200 µg/mL |
| CCN(CC)CCOc1ccccc1/C=C/c1ccc(/C=C/c2ccccc2OCCN(CC)CC)cc1 [formula 24] | 3.75 | 15 | 1.9 | 1.9 | 7.5 | 15 | 7.5 | 3.8 | – | – | – | – | – | – | – | 7.5 | 3.8 | 120 | 7.5 | 3.8 | Growth inhibition of Actinomyces viscosus after adsorption on hydroxyapatite discs [12]: growth inhibition |
